{"source": "ChEMBL document CHEMBL4304811", "about": "“Development of a Water-Soluble Indolylmaleimide Derivative IM-93 Showing Dual Inhibition of Ferroptosis and NETosis” (ACS Med Chem Lett, 2019)", "key": {"[1]": {"system": "Tyrosine-protein kinase ABL1 (Homo sapiens), P00519 [F317I]", "assay": "Binding affinity to human non-phosphorylated ABL1 F317I mutant (S229 to K512 residues) expressed in mammalian expression system assessed as residual binding level at 10 uM by Kinomescan method relative to control"}, "[2]": {"biological_target": "Ankyrin repeat and protein kinase domain-containing protein 1 (Homo sapiens) (UniProt Q8NFD2)", "sequence (Q8NFD2 whole entry, the tested form may be a part)": "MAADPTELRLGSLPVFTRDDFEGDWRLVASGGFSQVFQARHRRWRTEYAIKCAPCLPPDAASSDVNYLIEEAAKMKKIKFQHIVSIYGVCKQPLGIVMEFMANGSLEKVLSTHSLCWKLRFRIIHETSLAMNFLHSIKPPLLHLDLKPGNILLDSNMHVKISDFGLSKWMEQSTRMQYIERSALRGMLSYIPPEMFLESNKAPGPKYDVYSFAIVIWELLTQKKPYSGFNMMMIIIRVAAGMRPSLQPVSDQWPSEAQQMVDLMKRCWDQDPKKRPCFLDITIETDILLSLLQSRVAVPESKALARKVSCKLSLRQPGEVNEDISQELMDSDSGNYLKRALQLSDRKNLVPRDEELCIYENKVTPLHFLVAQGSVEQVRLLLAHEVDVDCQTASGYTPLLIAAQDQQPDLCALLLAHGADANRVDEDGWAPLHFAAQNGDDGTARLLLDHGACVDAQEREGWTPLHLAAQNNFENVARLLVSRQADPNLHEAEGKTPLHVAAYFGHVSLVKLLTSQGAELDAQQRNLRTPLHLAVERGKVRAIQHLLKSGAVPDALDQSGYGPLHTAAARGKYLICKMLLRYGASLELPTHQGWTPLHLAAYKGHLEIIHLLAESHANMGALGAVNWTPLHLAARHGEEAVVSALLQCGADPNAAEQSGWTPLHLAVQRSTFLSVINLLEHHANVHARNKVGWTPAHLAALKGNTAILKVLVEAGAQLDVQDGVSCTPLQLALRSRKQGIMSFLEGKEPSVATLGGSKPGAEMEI", "assay": "Binding affinity to wild-type human partial length ANKK1 (M1 to A305 residues) expressed in mammalian expression system assessed as residual binding level at 10 uM by Kinomescan method relative to control"}, "[3]": {"biological_target": "Calcium/calmodulin-dependent protein kinase kinase 1 (Homo sapiens) (UniProt Q8N5S9)", "assay": "Binding affinity to wild-type human partial length CAMKK1 (R65 to E414 residues) expressed in bacterial expression system assessed as residual binding level at 10 uM by Kinomescan method relative to control"}, "[4]": {"biological_target": "Casein kinase I isoform alpha-like (Homo sapiens) (UniProt Q8N752)", "assay": "Binding affinity to wild-type human full length CSNK1A1L (M1 to N337 residues) expressed in bacterial expression system assessed as residual binding level at 10 uM by Kinomescan method relative to control"}, "[5]": {"biological_target": "Casein kinase I isoform gamma-3 (Homo sapiens) (UniProt Q9Y6M4)", "sequence (Q9Y6M4 whole entry, looked up, the tested form may be a part, canonical isoform)": "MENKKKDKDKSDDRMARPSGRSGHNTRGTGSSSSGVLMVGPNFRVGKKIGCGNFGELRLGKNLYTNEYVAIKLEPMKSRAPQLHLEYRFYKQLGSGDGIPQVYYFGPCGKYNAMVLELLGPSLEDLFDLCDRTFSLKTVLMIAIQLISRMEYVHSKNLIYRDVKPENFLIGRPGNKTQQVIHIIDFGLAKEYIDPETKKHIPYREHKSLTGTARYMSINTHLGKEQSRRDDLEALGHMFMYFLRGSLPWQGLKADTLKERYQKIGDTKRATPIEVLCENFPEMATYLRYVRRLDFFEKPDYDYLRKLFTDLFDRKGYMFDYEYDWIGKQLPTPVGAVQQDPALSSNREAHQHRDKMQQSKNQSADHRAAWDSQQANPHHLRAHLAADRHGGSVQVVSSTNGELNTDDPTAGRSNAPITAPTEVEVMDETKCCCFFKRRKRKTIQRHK", "assay": "Binding affinity to wild-type human full length CSNK1G3 (M1 to K447 residues) expressed in bacterial expression system assessed as residual binding level at 10 uM by Kinomescan method relative to control"}, "[6]": {"system": "Epidermal growth factor receptor (Homo sapiens), P00533 [L861Q]", "assay": "Binding affinity to human partial length EGFR L861Q mutant (R669 to V1011 residues) expressed in bacterial expression system assessed as residual binding level at 10 uM by Kinomescan method relative to control"}, "[7]": {"system": "Receptor-type tyrosine-protein kinase FLT3 (Homo sapiens), P36888 [D835Y]", "assay": "Binding affinity to human partial length FLT3 D835Y mutant (Q580 to Y969 residues) expressed in bacterial expression system assessed as residual binding level at 10 uM by Kinomescan method relative to control"}, "[8]": {"system": "Receptor-type tyrosine-protein kinase FLT3 (Homo sapiens), P36888 [UNDEFINED MUTATION]", "assay": "Binding affinity to human partial length FLT3 ITD mutant expressed in bacterial expression system assessed as residual binding level at 10 uM by Kinomescan method relative to control"}, "[9]": {"system": "Receptor-type tyrosine-protein kinase FLT3 (Homo sapiens), P36888 [R834Q]", "assay": "Binding affinity to human partial length FLT3 R834Q mutant (V592 to Y969 residues) expressed in mammalian expression system assessed as residual binding level at 10 uM by Kinomescan method relative to control"}, "[10]": {"biological_target": "Glycogen synthase kinase-3 alpha (Homo sapiens) (UniProt P49840)", "assay": "Binding affinity to wild-type human full length GSK3A (M1 to S483 residues) expressed in bacterial expression system assessed as residual binding level at 10 uM by Kinomescan method relative to control"}, "[11]": {"biological_target": "MAP kinase-interacting serine/threonine-protein kinase 2 (Homo sapiens) (UniProt Q9HBH9)", "assay": "Binding affinity to wild-type human partial length MKNK2 (G63 to S388 residues) expressed in mammalian expression system assessed as residual binding level at 10 uM by Kinomescan method relative to control"}, "[12]": {"biological_target": "Mitogen-activated protein kinase kinase kinase 11 (Homo sapiens) (UniProt Q16584)", "assay": "Binding affinity to wild-type human partial length MLK3 (I77 to W399 residues) expressed in bacterial expression system assessed as residual binding level at 10 uM by Kinomescan method relative to control"}, "[13]": {"biological_target": "Serine/threonine-protein kinase Nek9 (Homo sapiens) (UniProt Q8TD19)", "assay": "Binding affinity to wild-type human partial length NEK9 (P32 to R328 residues) expressed in bacterial expression system assessed as residual binding level at 10 uM by Kinomescan method relative to control"}, "[14]": {"biological_target": "Cyclin-dependent kinase 2 homolog (Plasmodium falciparum (isolate 3D7)) (UniProt P61075)", "assay": "Binding affinity to wild-type Plasmodium falciparum full length PK5 (M1 to N288 residues) expressed in mammalian expression system assessed as residual binding level at 10 uM by Kinomescan method relative to control"}, "[15]": {"biological_target": "Phosphatidylinositol 4,5-bisphosphate 3-kinase catalytic subunit alpha isoform (Homo sapiens) (UniProt P42336)", "assay": "Binding affinity to wild-type human partial length PIK3CA (R108 to N1068 residues) expressed in mammalian expression system assessed as residual binding level at 10 uM by Kinomescan method relative to control"}, "[16]": {"system": "Phosphatidylinositol 4,5-bisphosphate 3-kinase catalytic subunit alpha isoform (Homo sapiens), P42336 [H1047L]", "sequence (P42336 whole entry H1047L, the tested form may be a part, canonical isoform)": "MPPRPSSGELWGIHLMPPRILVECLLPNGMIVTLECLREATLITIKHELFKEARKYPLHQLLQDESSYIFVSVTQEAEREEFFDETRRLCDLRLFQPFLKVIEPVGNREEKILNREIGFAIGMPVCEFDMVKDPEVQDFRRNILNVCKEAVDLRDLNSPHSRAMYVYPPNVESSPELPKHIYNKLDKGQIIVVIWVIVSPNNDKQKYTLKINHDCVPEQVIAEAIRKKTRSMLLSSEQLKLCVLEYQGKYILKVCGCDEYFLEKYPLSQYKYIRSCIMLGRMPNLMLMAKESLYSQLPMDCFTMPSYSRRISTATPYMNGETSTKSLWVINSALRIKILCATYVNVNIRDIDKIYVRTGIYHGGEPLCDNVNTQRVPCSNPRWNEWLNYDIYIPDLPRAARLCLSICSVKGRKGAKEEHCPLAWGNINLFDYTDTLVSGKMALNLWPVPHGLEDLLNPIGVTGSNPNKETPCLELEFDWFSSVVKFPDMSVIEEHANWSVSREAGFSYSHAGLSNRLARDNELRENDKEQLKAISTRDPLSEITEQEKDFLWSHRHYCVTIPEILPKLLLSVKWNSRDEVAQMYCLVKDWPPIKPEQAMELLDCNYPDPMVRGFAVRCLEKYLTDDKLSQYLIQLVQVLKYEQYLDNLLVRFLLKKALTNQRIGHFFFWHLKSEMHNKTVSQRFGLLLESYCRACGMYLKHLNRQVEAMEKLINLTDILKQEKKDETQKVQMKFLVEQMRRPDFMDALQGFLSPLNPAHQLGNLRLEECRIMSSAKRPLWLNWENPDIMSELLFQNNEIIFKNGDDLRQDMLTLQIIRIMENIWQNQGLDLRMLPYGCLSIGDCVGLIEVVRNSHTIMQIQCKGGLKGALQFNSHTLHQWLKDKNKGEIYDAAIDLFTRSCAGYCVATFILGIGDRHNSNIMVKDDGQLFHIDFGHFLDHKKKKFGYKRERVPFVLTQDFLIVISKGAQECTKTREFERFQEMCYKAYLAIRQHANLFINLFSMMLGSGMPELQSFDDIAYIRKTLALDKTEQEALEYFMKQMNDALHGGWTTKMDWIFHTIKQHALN", "assay": "Binding affinity to human partial length PIK3CA H1047L mutant (R108 to N1068 residues) expressed in mammalian expression system assessed as residual binding level at 10 uM by Kinomescan method relative to control"}, "[17]": {"system": "Phosphatidylinositol 4,5-bisphosphate 3-kinase catalytic subunit alpha isoform (Homo sapiens), P42336 [Q546K]", "assay": "Binding affinity to human partial length PIK3CA Q546K mutant (R108 to N1068 residues) expressed in mammalian expression system assessed as residual binding level at 10 uM by Kinomescan method relative to control"}, "[18]": {"biological_target": "Serine/threonine-protein kinase PLK4 (Homo sapiens) (UniProt O00444)", "sequence (O00444 whole entry, the tested form may be a part)": "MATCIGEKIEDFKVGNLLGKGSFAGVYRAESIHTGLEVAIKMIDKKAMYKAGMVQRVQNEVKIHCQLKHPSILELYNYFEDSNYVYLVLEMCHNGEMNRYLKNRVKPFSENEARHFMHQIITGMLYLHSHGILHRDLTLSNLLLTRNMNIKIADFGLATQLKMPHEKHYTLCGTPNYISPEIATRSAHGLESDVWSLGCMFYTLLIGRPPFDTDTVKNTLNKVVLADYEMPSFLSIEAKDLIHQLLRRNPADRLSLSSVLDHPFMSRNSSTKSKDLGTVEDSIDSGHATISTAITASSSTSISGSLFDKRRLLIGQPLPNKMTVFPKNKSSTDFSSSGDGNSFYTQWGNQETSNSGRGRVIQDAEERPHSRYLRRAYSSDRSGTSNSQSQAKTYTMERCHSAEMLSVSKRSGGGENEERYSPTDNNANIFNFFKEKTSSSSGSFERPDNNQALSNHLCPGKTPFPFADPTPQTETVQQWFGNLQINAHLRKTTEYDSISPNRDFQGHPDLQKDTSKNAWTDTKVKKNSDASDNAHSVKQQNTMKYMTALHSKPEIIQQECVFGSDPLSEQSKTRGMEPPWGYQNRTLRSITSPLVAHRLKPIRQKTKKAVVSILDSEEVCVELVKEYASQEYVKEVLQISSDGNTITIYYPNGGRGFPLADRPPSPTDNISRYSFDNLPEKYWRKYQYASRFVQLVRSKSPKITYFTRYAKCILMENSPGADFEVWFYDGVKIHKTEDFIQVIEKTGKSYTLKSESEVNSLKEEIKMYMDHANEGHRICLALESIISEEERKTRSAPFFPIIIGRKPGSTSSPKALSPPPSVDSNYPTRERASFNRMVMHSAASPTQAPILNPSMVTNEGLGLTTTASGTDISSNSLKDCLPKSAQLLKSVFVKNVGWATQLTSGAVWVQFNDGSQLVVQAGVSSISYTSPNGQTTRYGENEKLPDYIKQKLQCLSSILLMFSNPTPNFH", "assay": "Binding affinity to wild-type human partial length PLK4 (M1 to S273 residues) expressed in mammalian expression system assessed as residual binding level at 10 uM by Kinomescan method relative to control"}, "[19]": {"biological_target": "Proto-oncogene tyrosine-protein kinase receptor Ret (Homo sapiens) (UniProt P07949)", "assay": "Binding affinity to wild-type human partial length RET (E713 to D1014 residues) expressed in bacterial expression system assessed as residual binding level at 10 uM by Kinomescan method relative to control"}, "[20]": {"biological_target": "Ribosomal protein S6 kinase alpha-4 (Homo sapiens) (UniProt O75676)", "sequence (O75676 whole entry, looked up, the tested form may be a part)": "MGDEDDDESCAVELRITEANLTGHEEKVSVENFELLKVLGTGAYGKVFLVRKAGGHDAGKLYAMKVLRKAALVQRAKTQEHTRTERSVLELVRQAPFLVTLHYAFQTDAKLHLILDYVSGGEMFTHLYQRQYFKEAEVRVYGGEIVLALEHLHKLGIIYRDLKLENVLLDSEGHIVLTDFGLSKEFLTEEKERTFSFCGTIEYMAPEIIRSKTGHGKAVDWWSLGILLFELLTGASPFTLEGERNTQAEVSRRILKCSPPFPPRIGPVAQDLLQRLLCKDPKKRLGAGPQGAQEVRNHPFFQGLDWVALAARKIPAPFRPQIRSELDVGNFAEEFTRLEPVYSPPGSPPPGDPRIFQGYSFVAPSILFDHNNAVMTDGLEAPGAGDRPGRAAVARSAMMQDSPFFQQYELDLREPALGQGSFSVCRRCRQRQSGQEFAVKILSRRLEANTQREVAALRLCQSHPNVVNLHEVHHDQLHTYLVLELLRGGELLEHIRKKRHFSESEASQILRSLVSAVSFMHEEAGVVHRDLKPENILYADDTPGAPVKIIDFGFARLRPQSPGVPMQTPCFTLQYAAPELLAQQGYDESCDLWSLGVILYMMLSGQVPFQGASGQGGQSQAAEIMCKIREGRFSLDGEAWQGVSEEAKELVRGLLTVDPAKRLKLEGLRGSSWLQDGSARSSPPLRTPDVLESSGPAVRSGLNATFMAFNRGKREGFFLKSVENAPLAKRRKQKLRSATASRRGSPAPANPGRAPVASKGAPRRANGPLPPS", "assay": "Binding affinity to wild-type human partial length C-terminal RPS6KA4 kinase domain 2 (M375 to T705 residues) expressed in mammalian expression system assessed as residual binding level at 10 uM by Kinomescan method relative to control"}, "[21]": {"biological_target": "Proto-oncogene tyrosine-protein kinase Src (Homo sapiens) (UniProt P12931)", "sequence (P12931 2-536 limits assumed)": "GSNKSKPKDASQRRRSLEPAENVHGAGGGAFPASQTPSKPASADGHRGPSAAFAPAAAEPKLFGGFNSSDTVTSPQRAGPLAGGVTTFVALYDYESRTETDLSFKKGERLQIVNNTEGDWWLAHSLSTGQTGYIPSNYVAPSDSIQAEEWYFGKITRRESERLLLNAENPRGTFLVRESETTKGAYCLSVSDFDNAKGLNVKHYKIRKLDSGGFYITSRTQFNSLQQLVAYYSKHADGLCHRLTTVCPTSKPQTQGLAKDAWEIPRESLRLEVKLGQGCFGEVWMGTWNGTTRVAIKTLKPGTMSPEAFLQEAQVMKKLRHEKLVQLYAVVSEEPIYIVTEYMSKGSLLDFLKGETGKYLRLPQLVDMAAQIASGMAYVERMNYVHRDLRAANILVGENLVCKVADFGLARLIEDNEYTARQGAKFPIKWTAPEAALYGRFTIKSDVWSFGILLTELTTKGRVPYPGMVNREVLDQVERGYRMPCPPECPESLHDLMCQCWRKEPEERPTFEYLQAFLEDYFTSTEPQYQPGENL", "assay": "Binding affinity to wild-type human partial length SRC (L240 to L536 residues) expressed in bacterial expression system assessed as residual binding level at 10 uM by Kinomescan method relative to control"}, "[22]": {"biological_target": "Serine/threonine-protein kinase tousled-like 2 (Homo sapiens) (UniProt Q86UE8)", "assay": "Binding affinity to wild-type human partial length TLK2 (E424 to N749 residues) expressed in bacterial expression system assessed as residual binding level at 10 uM by Kinomescan method relative to control"}, "[23]": {"biological_target": "Serine/threonine-protein kinase 32C (Homo sapiens) (UniProt Q86UX6)", "sequence (Q86UX6 whole entry, the tested form may be a part)": "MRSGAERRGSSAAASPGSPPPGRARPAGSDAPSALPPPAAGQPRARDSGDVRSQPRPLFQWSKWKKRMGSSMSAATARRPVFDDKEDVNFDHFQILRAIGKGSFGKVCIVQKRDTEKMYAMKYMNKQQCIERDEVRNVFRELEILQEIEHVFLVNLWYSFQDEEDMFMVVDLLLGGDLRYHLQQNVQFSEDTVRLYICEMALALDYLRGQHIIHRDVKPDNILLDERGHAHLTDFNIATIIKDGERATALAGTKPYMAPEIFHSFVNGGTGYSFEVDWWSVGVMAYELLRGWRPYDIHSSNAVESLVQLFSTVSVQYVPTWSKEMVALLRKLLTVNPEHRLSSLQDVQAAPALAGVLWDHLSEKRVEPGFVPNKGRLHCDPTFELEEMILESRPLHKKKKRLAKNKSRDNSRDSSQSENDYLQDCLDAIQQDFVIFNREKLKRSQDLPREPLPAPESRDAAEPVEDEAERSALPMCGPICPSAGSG", "assay": "Binding affinity to wild-type human partial length YANK3 (M68 to G486 residues) expressed in bacterial expression system assessed as residual binding level at 10 uM by Kinomescan method relative to control"}}}
{"smiles": "CC(C)N1C(=O)C(NCCCN(C)C)=C(c2cn(C)c3ccccc23)C1=O.Cl", "values": [{"measurement": "Activity", "setting": "[1]", "value": 88, "unit": "%"}, {"measurement": "Activity", "setting": "[2]", "value": 90, "unit": "%"}, {"measurement": "Activity", "setting": "[3]", "value": 93, "unit": "%"}, {"measurement": "Activity", "setting": "[4]", "value": 99, "unit": "%"}, {"measurement": "Activity", "setting": "[5]", "value": 96, "unit": "%"}, {"measurement": "Activity", "setting": "[6]", "value": 80, "unit": "%"}, {"measurement": "Activity", "setting": "[7]", "value": 94, "unit": "%"}, {"measurement": "Activity", "setting": "[8]", "value": 82, "unit": "%"}, {"measurement": "Activity", "setting": "[9]", "value": 100, "unit": "%"}, {"measurement": "Activity", "setting": "[10]", "value": 83, "unit": "%"}, {"measurement": "Activity", "setting": "[11]", "value": 87, "unit": "%"}, {"measurement": "Activity", "setting": "[12]", "value": 91, "unit": "%"}, {"measurement": "Activity", "setting": "[13]", "value": 100, "unit": "%"}, {"measurement": "Activity", "setting": "[14]", "value": 87, "unit": "%"}, {"measurement": "Activity", "setting": "[15]", "value": 76, "unit": "%"}, {"measurement": "Activity", "setting": "[16]", "value": 78, "unit": "%"}, {"measurement": "Activity", "setting": "[17]", "value": 100, "unit": "%"}, {"measurement": "Activity", "setting": "[18]", "value": 97, "unit": "%"}, {"measurement": "Activity", "setting": "[19]", "value": 98, "unit": "%"}, {"measurement": "Activity", "setting": "[20]", "value": 74, "unit": "%"}, {"measurement": "Activity", "setting": "[21]", "value": 93, "unit": "%"}, {"measurement": "Activity", "setting": "[22]", "value": 84, "unit": "%"}, {"measurement": "Activity", "setting": "[23]", "value": 98, "unit": "%"}]}
